Values of other authors as cited in US20060188878A1, “Methods to predict ederma as a side effect of drug treatment” (priority 2002, published 2006).

Test system: CML
[1] = of 54 CML patients treated with 300 mg or more

Cc1ccc(NC(=O)c2ccc(CN3CCN(C)CC3)cc2)cc1Nc1nccc(-c2cccnc2)n1 [Imatinib]
Patients with complete cytogenetic remission [1]: 7
Patients with complete hematologic responses [1]: 53
Patients with cytogenic responses [1]: 29
Patients with major cytogenetic responses (0-35% of cells in metaphase positive for the Ph′ chromosome) [1]: 17
Patients with major cytogenetic responses, percent (of the 54 patients who received the dose (300 mg or more)): 31%
